As a reminder, the EC50 is the concentration needed to bring the measured effect to its halfway point. Read a high EC50 as a need for much substance.

The target of the first experiment is α4β7 integrin (Homo sapiens (Human), UniProt P13612+P26010). Put plainly: α4β7 Integrin Cell Capture Assay. The class given is cell-based. The settings on record: RPMI8866 cells captured on MadCAM-1 extracellular domain-coated plate.
Chain of α4β7 integrin (P13612 34-1032): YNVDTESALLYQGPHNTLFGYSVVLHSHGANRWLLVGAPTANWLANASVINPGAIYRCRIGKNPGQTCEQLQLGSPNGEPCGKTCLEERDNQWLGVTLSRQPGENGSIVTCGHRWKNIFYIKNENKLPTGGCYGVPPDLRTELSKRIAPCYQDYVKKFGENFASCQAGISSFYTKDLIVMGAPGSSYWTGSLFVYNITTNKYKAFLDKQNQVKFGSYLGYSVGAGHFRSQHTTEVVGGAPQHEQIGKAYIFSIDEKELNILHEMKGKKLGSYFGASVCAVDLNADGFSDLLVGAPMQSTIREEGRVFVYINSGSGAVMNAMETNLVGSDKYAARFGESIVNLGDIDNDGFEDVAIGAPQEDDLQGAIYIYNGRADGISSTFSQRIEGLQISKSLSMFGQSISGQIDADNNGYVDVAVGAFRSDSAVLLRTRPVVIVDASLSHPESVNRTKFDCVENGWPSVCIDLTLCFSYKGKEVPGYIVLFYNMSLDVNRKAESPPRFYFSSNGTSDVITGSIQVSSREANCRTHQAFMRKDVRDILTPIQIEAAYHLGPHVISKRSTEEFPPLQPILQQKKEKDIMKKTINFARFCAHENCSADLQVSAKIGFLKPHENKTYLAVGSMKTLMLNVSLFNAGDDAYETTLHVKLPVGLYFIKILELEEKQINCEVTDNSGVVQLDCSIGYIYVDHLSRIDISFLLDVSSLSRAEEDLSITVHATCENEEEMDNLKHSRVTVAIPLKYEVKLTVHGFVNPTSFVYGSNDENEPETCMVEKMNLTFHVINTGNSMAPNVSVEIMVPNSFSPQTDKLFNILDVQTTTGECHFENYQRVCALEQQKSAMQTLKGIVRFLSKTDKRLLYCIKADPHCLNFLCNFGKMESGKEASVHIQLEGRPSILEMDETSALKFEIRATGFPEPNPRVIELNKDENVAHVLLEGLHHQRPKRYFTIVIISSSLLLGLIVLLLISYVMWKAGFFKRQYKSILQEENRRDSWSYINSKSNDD
Chain of α4β7 integrin (P26010 20-798): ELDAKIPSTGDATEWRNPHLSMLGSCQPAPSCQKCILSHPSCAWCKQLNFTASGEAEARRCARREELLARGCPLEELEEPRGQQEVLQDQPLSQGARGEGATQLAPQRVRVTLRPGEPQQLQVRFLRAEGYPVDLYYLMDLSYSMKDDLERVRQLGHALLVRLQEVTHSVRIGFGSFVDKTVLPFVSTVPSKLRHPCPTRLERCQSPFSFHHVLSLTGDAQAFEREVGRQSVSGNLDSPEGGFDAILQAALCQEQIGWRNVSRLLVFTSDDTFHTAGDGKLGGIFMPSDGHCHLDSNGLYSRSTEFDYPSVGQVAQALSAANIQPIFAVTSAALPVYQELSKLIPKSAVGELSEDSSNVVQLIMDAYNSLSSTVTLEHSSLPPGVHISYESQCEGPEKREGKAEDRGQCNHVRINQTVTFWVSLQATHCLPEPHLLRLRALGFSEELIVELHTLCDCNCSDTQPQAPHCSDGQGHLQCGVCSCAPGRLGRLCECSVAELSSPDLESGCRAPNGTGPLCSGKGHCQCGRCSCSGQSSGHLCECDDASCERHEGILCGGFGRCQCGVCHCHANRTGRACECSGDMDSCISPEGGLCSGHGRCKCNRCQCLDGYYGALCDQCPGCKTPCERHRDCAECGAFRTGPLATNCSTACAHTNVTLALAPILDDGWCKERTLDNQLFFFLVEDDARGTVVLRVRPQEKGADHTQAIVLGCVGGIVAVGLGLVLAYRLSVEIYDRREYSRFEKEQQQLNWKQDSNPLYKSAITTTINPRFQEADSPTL
In the case of `Cn1c2c(cc(-c3ccc(C[C@H](NC(=O)c4c(F)cc(N5CCOC[C@@H]5C(F)(F)F)cc4F)C(=O)O)c4cccnc34)c1=O)CNCC2` [Example 438], the half-maximal effective concentration (EC50) stood at 0.291 nM.
`Cc1cc(N2CCOC[C@@H]2C(F)(F)F)cc(F)c1C(=O)N[C@@H](Cc1ccc(-c2cc(C)c(C)n(C)c2=O)c2ncccc12)C(=O)O` [Example 455] gave an EC50 of 0.211 nM.
On the same count and under the same terms, as for `Cc1cc(C(F)(F)F)c(-c2ccc(C[C@H](NC(=O)c3c(F)cc(N4C[C@H]5C[C@@H]4CO5)cc3F)C(=O)O)c3cccnc23)c(=O)n1C` [Example 480], the figure is 0.297 nM; as for `Cc1cc(N2CCOC[C@@H]2C(F)(F)F)cc(F)c1C(=O)N[C@@H](Cc1ccc(-n2c(=O)c3cc(N(C)C)ncc3n(C)c2=O)c2ncccc12)C(=O)O` [Example 416], 0.126 nM; as for `Cc1cc(C(F)(F)F)c(-c2ccc(C[C@H](NC(=O)c3c(F)cc(N4CCOC5(COC5)C4)cc3F)C(=O)O)c3cccnc23)c(=O)n1C` [Example 459], 2.07 nM.
The same measure, in the same setting: as for `Cc1cc(C(F)(F)F)c(-c2ccc(C[C@H](NC(=O)c3c(F)cc(N4CCN(C)C[C@@H]4C(F)(F)F)cc3F)C(=O)O)c3cccnc23)c(=O)n1C` (atropisomer, axis not shown) [Example 486], the figure is 1.31 nM.

The experiment is the same for the next values; noted with them: Table 1; capture of α4β7 expressing RPM18866 cells on MadCAM-1 extracellular domain-coated plate.
In turn, `N#Cc1ccc(-c2ccc(C[C@H](NC(=O)c3c(F)cc(N4CCO[C@H](C(F)(F)F)C4)cc3F)C(=O)O)c3cccnc23)c(Cl)c1` [Example 85, (S)-3-(8-(2-chloro-4-cyanophenyl)quinolin-5-yl)-2-(2,6-difluoro-4-((S)-2-(trifluoromethyl)morpholino)benzamido)propanoic acid] had a concentration for a half-maximal effect (EC50) of 25.4 nM.
Consider `COc1cnn(C)c(=O)c1-c1ccc(C[C@H](NC(=O)c2c(F)cccc2F)C(=O)O)c2cccnc12` [Example 70, (S)-2-(2,6-difluorobenzamido)-3-(8-(5-methoxy-2-methyl-3-oxo-2,3-dihydropyridazin-4-yl)quinolin-5-yl)propanoic acid], for which the half-maximal effective concentration (EC50) worked out at 10.7 nM.
On the same count and under the same terms, as for `N#Cc1ccc(-c2ccc(C[C@H](NC(=O)c3c(F)cc(N[C@@H](C4CC4)C(F)(F)F)cc3F)C(=O)O)c3cccnc23)c(Cl)c1` [Example 148], the figure is 60.6 nM; as for `COc1cccc(C)c1-c1ccc(C[C@H](NC(=O)c2c(F)cc(NS(=O)(=O)c3ccc(-c4ccnc(F)c4)cc3)cc2F)C(=O)O)c2cccnc12` [Example 64, (2S)-2-(2,6-difluoro-4-((4-(2-fluoropyridin-4-yl)phenyl)sulfonamido)benzamido)-3-(8-(2-methoxy-6-methylphenyl)quinolin-5-yl)propanoic acid], 0.8 nM; as for `Cn1cc(C(F)(F)F)cc(-c2ccc(C[C@H](NC(=O)c3c(F)cc(N4CCOC[C@@H]4C(F)(F)F)cc3F)C(=O)O)c3cccnc23)c1=O` [Example 98, (S)-2-(2,6-difluoro-4-((R)-3-(trifluoromethyl)morpholino)benzamido)-3-(8-(1-methyl-2-oxo-5-(trifluoromethyl)-1,2-dihydropyridin-3-yl)quinolin-5-yl)propanoic acid], 1.4 nM.
Same read-out and setting: as for `N#Cc1ccc(-c2ccc(C[C@H](NC(=O)c3c(Cl)cccc3Cl)C(=O)O)c3cc(F)cnc23)c(Cl)c1` [Example 30, (S)-3-(8-(2-chloro-4-cyanophenyl)-3-fluoroquinolin-5-yl)-2-(2,6-dichlorobenzamido)propanoic acid], the figure is 16.9 nM; as for `N#Cc1ccc(-c2ccc(C[C@H](NC(=O)c3c(F)cccc3Cl)C(=O)O)c3cccnc23)c(Cl)c1` [Example 2, (S)-3-(8-(2-chloro-4-cyanophenyl)quinolin-5-yl)-2-(2-chloro-6-fluorobenzamido)propanoic acid], 31.1 nM; as for `CCOCc1cc(OC)c(-c2ccc(C[C@H](NC(=O)c3c(F)cccc3F)C(=O)O)c3ccc(C)nc23)c(OC)c1` [Example 31, (S)-2-(2,6-difluorobenzamido)-3-(8-(4-(ethoxymethyl)-2,6-dimethoxyphenyl)-2-methylquinolin-5-yl)propanoic acid], 19.3 nM.
`N#Cc1ccc(-c2ccc(C[C@H](NC(=O)c3c(F)cc(N[C@H](c4ccccc4)C(F)(F)F)cc3F)C(=O)O)c3cccnc23)c(Cl)c1` [Example 86, (S)-3-(8-(2-chloro-4-cyanophenyl)quinolin-5-yl)-2-(2,6-difluoro-4-(((R)-2,2,2-trifluoro-1-phenylethyl)amino)benzamido)propanoic acid] had an EC50 of 8.3 nM.
On the same count and under the same terms, the same measure for `N#Cc1ccc(-c2ccc(C[C@H](NC(=O)c3c(F)cc(N4CCNC[C@@H]4C(F)(F)F)cc3F)C(=O)O)c3cccnc23)c(Cl)c1` [Example 77, (S)-3-(8-(2-chloro-4-cyanophenyl)quinolin-5-yl)-2-(2,6-difluoro-4-((R)-2-(trifluoromethyl)piperazin-1-yl)benzamido)propanoic acid]: 90.7 nM; for `COc1ccc(C(F)(F)F)c(-c2ccc(C[C@H](NC(=O)c3c(Cl)cccc3Cl)C(=O)O)c3cccnc23)n1` [Example 69, (S)-2-(2,6-dichlorobenzamido)-3-(8-(6-methoxy-3-(trifluoromethyl)pyridin-2-yl)quinolin-5-yl)propanoic acid]: 28.9 nM.
`N#Cc1ccc(-c2ccc(C[C@H](NC(=O)c3c(F)cc(NC(C(F)(F)F)C(F)(F)F)cc3F)C(=O)O)c3cccnc23)c(Cl)c1` [Example 88, (S)-3-(8-(2-chloro-4-cyanophenyl)quinolin-5-yl)-2-(2,6-difluoro-4-((1,1,1,3,3,3-hexafluoropropan-2-yl)amino)benzamido)propanoic acid] had an EC50 of 8.2 nM.
In turn, `CCCNc1cc(F)c(C(=O)N[C@@H](Cc2ccc(-c3c(C(F)(F)F)cc(C)n(C)c3=O)c3ncccc23)C(=O)O)c(F)c1` [Example 133, (S)-2-(2,6-difluoro-4-(propylamino)benzamido)-3-(8-(1,6-dimethyl-2-oxo-4-(trifluoromethyl)-1,2-dihydropyridin-3-yl)quinolin-5-yl)propanoic acid] had an EC50 of 3.2 nM.
In the case of `C[C@@H](N(C)c1cc(F)c(C(=O)N[C@@H](Cc2ccc(-c3ccc(C#N)cc3Cl)c3ncccc23)C(=O)O)c(F)c1)C(F)(F)F` [Example 87, (S)-3-(8-(2-chloro-4-cyanophenyl)quinolin-5-yl)-2-(2,6-difluoro-4-(methyl((R)-1,1,1-trifluoropropan-2-yl)amino)benzamido)propanoic acid], the EC50 was 15 nM.

The experiment is the same for the next values; noted with them: Table 2; capture of α4β7 expressing RPM18866 cells on MadCAM-1 extracellular domain-coated plate.
Molecule `Cc1cc(C(F)(F)F)c(-c2ccc(C[C@H](NC(=O)c3c(F)cc(N4CCCC[C@@H]4C(F)(F)F)cc3F)C(=O)O)c3cccnc23)c(=O)n1C` (atropisomer, axis not shown) [Example 344] had an EC50 of 0.8 nM.
The same measure, in the same setting: the same measure for `CC[C@@H](Nc1cc(F)c(C(=O)N[C@@H](Cc2ccc(-c3nc(N)ccc3C(F)(F)F)c3ncccc23)C(=O)O)c(F)c1)C(F)(F)F` [Example 208]: 1.8 nM.
For the molecule `N#Cc1ccc(-c2ccc(C[C@H](NC(=O)c3c(Cl)cc4cc(C5CC5)[nH]c4c3Cl)C(=O)O)c3cccnc23)c(Cl)c1` [Example 228], the EC50 turned out to be 57.8 nM.
On the same count and under the same terms, as for `N#Cc1ccc(-c2ccc(C[C@H](NC(=O)c3c(F)cc(N[C@H](c4ccccc4)C(F)F)cc3F)C(=O)O)c3cccnc23)c(Cl)c1` [Example 324], the figure is 18.7 nM; as for `O=C(N[C@@H](Cc1ccc(-c2ncc3ccc(C4CC4)cc3c2C(F)(F)F)c2ncccc12)C(=O)O)c1c(Cl)cccc1Cl` [Example 319], 14.4 nM; as for `Cc1ccnc(-c2ccc(C[C@H](NC(=O)c3c(F)cc(N4CCOC[C@@H]4C(F)(F)F)cc3F)C(=O)O)c3cccnc23)c1C(F)(F)F` [Example 223], 2.2 nM.
In turn, `N#Cc1ccc(-c2ccc(C[C@H](NC(=O)c3c(F)cc(N[C@H](c4ccc(F)cc4)C(F)(F)F)cc3F)C(=O)O)c3cccnc23)c(Cl)c1` [Example 331] displayed an EC50 of 22.9 nM.
On to `CCOCc1cc(OC)c(-c2ccc(C[C@H](NC(=O)c3c(Cl)cc4cc[nH]c4c3Cl)C(=O)O)c3cccnc23)c(OC)c1` [Example 219], for which the EC50 is 2.1 nM.
On the same count and under the same terms, as for `Cc1c(N)cc(-c2ccc(C[C@H](NC(=O)c3c(F)cc(N4CCOC[C@@H]4C(F)(F)F)cc3F)C(=O)O)c3cccnc23)c(=O)n1C` [Example 273], the figure is 4.7 nM.
`Cc1cc(C(F)(F)F)c(-c2ccc(C[C@H](NC(=O)c3c(F)cc(N4C[C@@H](C)OC[C@H]4C)cc3F)C(=O)O)c3cccnc23)c(=O)n1C` [Example 249] had an EC50 of 3 nM.
As to `N#Cc1cc(Cl)c(-c2ccc(C[C@H](NC(=O)c3c(Cl)cccc3Cl)C(=O)O)c3cc(F)cnc23)c(Cl)c1` [Example 304], the EC50 came out at 9.6 nM.
For the molecule `O=C(N[C@@H](Cc1ccc(Oc2nccc3ccccc23)c2ncccc12)C(=O)O)c1c(Cl)cccc1Cl` [Example 157], it took 44 nM to reach a half-maximal effect (EC50).
The molecule `Cc1cc(C(F)(F)F)c(-c2ccc(C[C@H](NC(=O)c3c(F)cc(N4CCOC[C@@H]4C)cc3F)C(=O)O)c3cccnc23)c(=O)n1C` [Example 180] gave an EC50 of 0.9 nM.
On to `COc1ccc(C)nc1-c1ccc(C[C@H](NC(=O)c2c(F)cc(N3CCOC[C@H]3C(F)(F)F)cc2F)C(=O)O)c2cccnc12` [Example 291], for which the EC50 came to 6.9 nM.
Consider `CCOCc1cc(OC)c(-c2ccc(C[C@H](NC(=O)c3c(Cl)cc4[nH]ccc4c3Cl)C(=O)O)c3cccnc23)c(OC)c1` [Example 235], for which the EC50 stood at 2.3 nM.
In turn, `Cc1cc(C(F)(F)F)c(-c2ccc(C[C@H](NC(=O)c3c(F)cc(N4CCOC[C@H]4CC(F)(F)F)cc3F)C(=O)O)c3cccnc23)c(=O)n1C` [Example 254] had an EC50 of 3.2 nM.
Still for that read-out and setting: the same measure for `Cc1ccc(C(F)(F)F)c(-c2ccc(C[C@H](NC(=O)c3c(F)cc(N4CCOC[C@@H]4C(F)(F)F)cc3F)C(=O)O)c3cccnc23)n1` [Example 270]: 4.4 nM.
Molecule `N#Cc1ccc(-c2ccc(C[C@H](NC(=O)c3c(F)cc(N[C@H](C4CCC4)C(F)(F)F)cc3F)C(=O)O)c3cccnc23)c(Cl)c1` [Example 333] came in with an EC50 of 24.1 nM.
With `CC[C@@H](N(c1cc(F)c(C(=O)N[C@@H](Cc2ccc(-c3c(C(F)(F)F)cc(C)n(C)c3=O)c3ncccc23)C(=O)O)c(F)c1)C1CC1)C(F)(F)F` [Example 172], a half-maximal response (EC50) required 0.5 nM.

Source of the values: patent publication US11116760B2 (Gilead Sciences, Inc., priority 2018, dated 2021).
